Laboratory results as given in patent US7173063B1, “Topoisomerase poisons for the treatment of proliferative disorders” (Fred Hutchinson Cancer Research Center, priority 2000, dated 2007).

Columns and labels:
[1] = Cell based assays (toxicity, unspecified)
Rat1a fibroblasts = test: Effect of co-treatment with hydroxyurea (HU) on toxicity in Rat1a fibroblasts; type: cell-based, rat; conditions: six-hour exposure; 0, 0.25, 0.5 or 1 mM HU
Experimental: FIG. 6 illustrates the effect of exposure time and hydroxyurea on the toxicity of compound Ia and compound IIa. […] Rat1a fibroblasts were exposed to compound during growth for either four or six hours, the media was changed, then cells were grown for an appropriate period such that total incubation time was 96 hours, and processed as described in the Example below. […] The bar graph insets for each graph show growth inhibition by HU alone.
(§1) Cells were plated at a density of 500 cells per well in opaque 96 well plates (Packard) in a volume of 135 μL per well of the appropriate media. The plates were incubated overnight to allow cell adherence. Seven two-fold dilutions of the test compounds were added in a volume of 15 μL per well in triplicate, and 15 μL of media containing an appropriate concentration of DMSO was added to control wells in triplicate. Plates were incubated at 37° C. for 96 hours. The media was then replaced with 100 μL per well of the appropriate media containing 2 μCi/mL of (methyl-^3H) thymidine (Amersham Pharmacia Biotech), then plates were incubated for a further 24 hours at 37° C. Cells were washed three times with PBS, then 100 μL per well of scintillant was added (Microscint 20, Packard), and sealed plates were counted in a microplate reader (Packard Topcount). For suspension chicken cells, (methyl-^3H) thymidine was added directly to the drug-containing media at a concentration of 20 μCi/mL (comprising one tenth of the media volume) and incubated overnight. The suspension cells were transferred to a UniFilter GF/C plate (Packard) and washed with PBS in a plate washer (Packard). After drying, 25 μL per well of scintillant (Microscint 20, Packard) was added, and sealed plates were counted. Toxicity is expressed as a percentage of the control counts. For experiments involving shorter exposures to compounds, cells were grown in the presence of compound for the appropriate time, then the media was replaced with fresh drug-free media, and incubation continued for the remainder of 96 hours, followed by the normal tritiated thymidine uptake and washing protocol.
A six-hour exposure was used to test whether the toxicity of the same set of compounds is dependent on ongoing DNA synthesis. […] Thus, in contrast to camptothecin and topotecan, compounds Ia and IIa show no marked time dependency for toxicity (FIG. 6A) and are not inhibited by HU (FIG. 6B), indicating critical mechanistic differences between these compounds and camptothecin.

[2] = test system: chicken pre-B cell line DT40; test: Thymidine incorporation toxicity assay in isogenic DT40 cells with or without KU70, RAD52, RAD54; type: cell-based; conditions: for effect of loss of KU70 on toxicity: DT40 with or without KU70; for effect of loss of homologous recombination (RAD52 or RAD54) on toxicity: DT40 with or without RAD52 or RAD54
Experimental: Cell lines were grown at 37° C. in an atmosphere of 5% CO2. The chicken pre-B cell line DT40 and its derivatives (Bezzubova, et al., Cell 89: 185–93 (1997), Takata, et al., EMBO Journal 17: 5497–508 (1998), Yamaguchi-Iwai, et al., Molecular & Cellular Biology 18: 6430–5 (1998)) were grown in RPMI containing 10% fetal calf serum and 1% chicken serum. The remaining cell lines were grown in DMEM with 10% fetal calf serum.
Toxicity assays in mammalian cell lines were performed using tritiated thymidine incorporation as a measure of the number of viable cells. […] Drug toxicity was measured as follows:
as §1
In the case of Topo II poisons, the drug/enzyme complex directly produces a DSB, which could occur in all phases of the cell cycle and can apparently be repaired by either DSB repair pathway. Topo I poisons, however, create a single strand break that is converted to a DSB by passage of a replication fork during ongoing DNA synthesis (D'Arpa, et al., Cancer Research 50: 6919–24 (1990), Hsiang, et al., Cancer Research 49: 5077–82 (1989), Holm, et al., Cancer Research 49: 6365–8 (1989)). It has been proposed that DSB's created in this context can only be repaired by homologous recombination, additionally requiring proteins involved in sister chromatid cohesion (Castano, et al., Genes & Development 10: 2564–76 (1996), Castano, et al., Nucleic Acids Research 24: 2404–10 (1996), Walowsky, et al., Journal of Biological Chemistry 274: 7302–8 (1999)).

In the case of `O=C(CCl)Nc1ccc(C(=O)N/N=C/c2ccc(Cl)cc2)cc1` [compound Ia], the “IC50 compared to camptothecin” value [1] is reported as “higher IC50's”, the “change of toxicity caused by HU co-treatment” value (Rat1a fibroblasts) is reported as “slight accentuation of toxicity” and the “inhibition of toxicity by co-treatment with HU” value (Rat1a fibroblasts) is reported as “not inhibited by co-treatment with HU”. The “effect of loss of KU70 on toxicity” value [2] was “unaffected by loss of KU70” and the “effect of loss of homologous recombination (RAD52 or RAD54) on toxicity” value [2] was “only marginally affected”.

For `O=c1c(Cl)c(Cl)cnn1CCCl` [compound IIa], the “IC50 compared to camptothecin” value [1] was “higher IC50's”, the “change of toxicity caused by HU co-treatment” value (Rat1a fibroblasts) was “slight accentuation of toxicity” and the “inhibition of toxicity by co-treatment with HU” value (Rat1a fibroblasts) was “not inhibited by co-treatment with HU”. The “effect of loss of KU70 on toxicity” value [2] was “unaffected by loss of KU70” and the “effect of loss of homologous recombination (RAD52 or RAD54) on toxicity” value [2] was “only marginally affected”.
